Assay results as given in patent EP4817425A1, “COMPOSITION AND SOLID MOLDED BODY” (Nagase & Co., Ltd., priority 2023, dated 2025).

Experiment: Screening test of saccharides: thickness of tableted product tableted to hardness 5 N
Format: physicochemical
Details: protein powder and saccharide weight ratio 1:1, tableted to hardness 5 N; compared among eight saccharides (Fig. 1)
From the text: The tableting characteristics of various saccharides were confirmed, and saccharides suitable for the production of a solid molded body were screened. First, 2.0 g each (within an error of 0.003 g) of a protein powder (WPC392 manufactured by Fonterra Japan Limited) and any one of the saccharides shown below were weighed and mixed to prepare a composition containing 50 parts by weight each of the protein and the saccharide (weight ratio 1:1). Each of the obtained compositions was tableted with the tableting force appropriately adjusted so that the composition would have a hardness of 5 N after being tableted. As a result, a tableted product having a hardness of 5 N was obtained. The thickness of the obtained tableted product was measured. Note that in the Examples, the thicknesses of a tableted product and a solid molded body are values each measured using a caliper (ABS digimatic caliper CD-AX, manufactured by Mitutoyo Corporation), and the hardnesses of a tableted product and a solid molded body are values each measured using a load cell type tablet hardness tester (PC-30 manufactured by OKADA SEIKO CO., LTD.).

## OC[C@H]1O[C@H](O[C@H]2[C@H](O)[C@@H](O)C(O)O[C@@H]2CO)[C@H](O)[C@@H](O)[C@@H]1O (mixture of isomers) [maltose, Maltose]
  thickness of the tableted product: largest thickness
